In PubChem BioAssay AID212 (DTP/NCI, 2004):
Values joined by “and” are separate entries in the source; they are usually repeats but may differ in a detail not shown here. Equal entries are not always repeated. Results filed as inconclusive are left out.

Tested on: BDF1 mice, colon carcinoma 38 sc, T/C %
Assay: NCI In Vivo Anticancer Drug Screen. Data for tumor model Colon Carcinoma 38 (subcutaneous) in B6D2F1 (BDF1) mice
Conditions: endpoint: median tumor weight (est.), higher = larger tumour
Outline: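 Compound antitumor activity was assessed in mice carrying transplantable tumors. Survival or tumor size was recorded, and each value is the treated-group measurement divided by that of the vehicle-treated control group.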

[1] = dose: 25.0 mg/kg/injection, schedule: Q07DX002 (ip), vehicle: saline with Tween-80
[2] = dose: 50.0 mg/kg/injection, schedule: Q07DX002 (ip), vehicle: saline with Tween-80
[3] = dose: 100.0 mg/kg/injection, schedule: Q07DX002 (ip), vehicle: saline with Tween-80
[4] = dose: 12.5 mg/kg/injection, schedule: Q07DX002 (ip), vehicle: saline
[5] = dose: 25.0 mg/kg/injection, schedule: Q07DX002 (ip), vehicle: saline
[6] = dose: 25.0 mg/kg/injection, schedule: Q07DX003 (ip), vehicle: saline
[7] = dose: 50.0 mg/kg/injection, schedule: Q07DX002 (ip), vehicle: saline
[8] = dose: 50.0 mg/kg/injection, schedule: Q07DX003 (ip), vehicle: saline
[9] = dose: 100.0 mg/kg/injection, schedule: Q07DX002 (ip), vehicle: saline
[10] = dose: 200.0 mg/kg/injection, schedule: Q07DX002 (ip), vehicle: saline
[11] = dose: 400.0 mg/kg/injection, schedule: Q07DX002 (ip), vehicle: saline
[12] = dose: 800.0 mg/kg/injection, schedule: Q07DX002 (ip), vehicle: saline
[13] = dose: 12.5 mg/kg/injection, schedule: Q07DX002 (ip), vehicle: Klucel (hydroxypropylcellulose) (HPC)
[14] = dose: 12.5 mg/kg/injection, schedule: Q07DX002 (ip), vehicle: saline with Tween-80
[15] = dose: 200.0 mg/kg/injection, schedule: Q07DX002 (ip), vehicle: saline with Tween-80
[16] = dose: 3.0 mg/kg/injection, schedule: Q07DX002 (ip), vehicle: saline with Tween-80

In the case of `CC(=O)Nc1ccc(Nc2ccc(C(=C3C=CC(=[N+](C)CCC#N)C=C3)c3ccc(N(C)CCC#N)cc3)cc2)cc1`, the T/C [1] is reported as 77 % of control and 93 % of control, the T/C [2] is reported as 91 % of control and the T/C [3] is reported as 52 % of control.
With `Nc1ncnc2c1ncn2C1OC(CO)C(O)C1O` (configuration not stated) the T/C [4] was 103 % of control, the T/C [5] was 115 % of control and the T/C [6] was 233 % of control. The T/C [7] was 85 % of control, the T/C [8] was 238 % of control and the T/C (dose: 75.0 mg/kg/injection, schedule: Q07DX002 (ip), vehicle: saline) was 80 % of control. For the same compound, the T/C [9] was 110 % of control, the T/C (dose: 150.0 mg/kg/injection, schedule: Q07DX002 (ip), vehicle: saline) was 97 % of control and the T/C (dose: 300.0 mg/kg/injection, schedule: Q07DX002 (ip), vehicle: saline) was 105 % of control. For the same compound, the T/C (dose: 600.0 mg/kg/injection, schedule: Q07DX002 (ip), vehicle: saline) was 116 % of control.
With `CNC=O` the T/C [10] was 110 % of control, the T/C [11] was 150 % of control and the T/C [12] was 55 % of control. For the same compound, the T/C (dose: 1600.0 mg/kg/injection, schedule: Q07DX002 (ip), vehicle: saline) was 75 % of control.
`CCCC(=O)Nc1ncnc2c1ncn2C1OC2COP(=O)(O)OC2C1OC(=O)CCC` (configuration not stated) was tested, and the T/C [5] was 84 % of control and 103 % of control, the T/C [9] was 101 % of control and 106 % of control and the T/C [12] was 75 % of control and 96 % of control.
`O=C(O)CC(=O)O.[NH-]CC[NH-].[Pt+2]` was tested, and the T/C (dose: 14.1 mg/kg/injection, schedule: Q07DX002 (ip), vehicle: dextrose) was 71 % of control and 85 % of control, the T/C (dose: 28.1 mg/kg/injection, schedule: Q07DX002 (ip), vehicle: dextrose) was 69 % of control and the T/C (dose: 28.2 mg/kg/injection, schedule: Q07DX002 (ip), vehicle: dextrose) was 71 % of control and 75 % of control. For the same compound, the T/C (dose: 56.2 mg/kg/injection, schedule: Q07DX002 (ip), vehicle: dextrose) was 42 % of control.
`C=C(NC(=O)C(=C)NC(=O)c1csc(C2=NC3c4csc(n4)C4NC(=O)c5csc(n5)C(C(C)(O)C(C)O)NC(=O)C5CSC(=N5)/C(=C/C)NC(=O)C(C(C)O)NC(=O)c5csc(n5)C3(CC2)NC(=O)C(C)NC(=O)C(=C)NC(=O)C(C)NC(=O)C(C(C)CC)NC2C=Cc3c(C(C)O)cc(nc3C2O)C(=O)OC4C)n1)C(N)=O` (configuration not stated) was tested, and the T/C [13] was 70 % of control, the T/C (dose: 50.0 mg/kg/injection, schedule: Q07DX002 (ip), vehicle: Klucel (hydroxypropylcellulose) (HPC)) was 106 % of control and the T/C (dose: 100.0 mg/kg/injection, schedule: Q07DX002 (ip), vehicle: Klucel (hydroxypropylcellulose) (HPC)) was 106 % of control. For the same compound, the T/C (dose: 200.0 mg/kg/injection, schedule: Q07DX002 (ip), vehicle: Klucel (hydroxypropylcellulose) (HPC)) was 110 % of control, the T/C (dose: 400.0 mg/kg/injection, schedule: Q07DX002 (ip), vehicle: Klucel (hydroxypropylcellulose) (HPC)) was 119 % of control and the T/C (dose: 400.0 mg/kg/injection, schedule: Q07DX003 (ip), vehicle: Klucel (hydroxypropylcellulose) (HPC)) was 119 % of control.
For `c1csc(C[N+]23CN4CN(CN(C4)C2)C3)c1`, the T/C [5] was 77 % of control, the T/C [7] was 108 % of control and the T/C [9] was 81 % of control. The T/C [10] was 97 % of control and the T/C [11] was 112 % of control.
`CCc1nc(N)nc(N)c1-c1ccc(Cl)c([N+](=O)[O-])c1` was tested, and the T/C (dose: 3.12 mg/kg/injection, schedule: Q07DX002 (ip), vehicle: saline with Tween-80) was 70 % of control, the T/C (dose: 6.25 mg/kg/injection, schedule: Q07DX002 (ip), vehicle: saline with Tween-80) was 65 % of control and 77 % of control and the T/C [14] was 97 % of control and 103 % of control. For the same compound, the T/C [2] was 45 % of control and 62 % of control and the T/C [3] was 52 % of control.
In the case of `CC[C@](O)(C(=O)O)c1cc2n(c(=O)c1CO)Cc1cc3ccccc3nc1-2`, the T/C (dose: 6.25 mg/kg/injection, schedule: Q07DX003 (ip), vehicle: saline) is reported as 48 % of control and 62 % of control, the T/C (dose: 12.5 mg/kg/injection, schedule: Q07DX003 (ip), vehicle: saline) is reported as 38 % of control and 60 % of control and the T/C [6] is reported as 34 % of control and 41 % of control and 54 % of control. The T/C [8] was 23 % of control and 26 % of control and 45 % of control and the T/C (dose: 100.0 mg/kg/injection, schedule: Q07DX003 (ip), vehicle: saline) was 9 % of control.
`COc1cc(C2c3cc4c(cc3C(O)C(CO)C2CO)OCO4)cc(OC)c1OC` (configuration not stated) was tested, and the T/C [14] was 81 % of control, the T/C [1] was 155 % of control and the T/C [2] was 180 % of control. The T/C [3] was 203 % of control, the T/C [15] was 160 % of control and the T/C (dose: 400.0 mg/kg/injection, schedule: Q07DX002 (ip), vehicle: saline with Tween-80) was 174 % of control.
For `O=C(O[Si](Cc1ccccc1)(Cc1ccccc1)Cc1ccccc1)N(CCCl)CCCl`, the T/C [1] was 77 % of control and 102 % of control, the T/C [3] was 194 % of control and the T/C [15] was 112 % of control.
For `O=C(O)c1c2c(nc3ccccc13)Cc1ccccc1-2`, the T/C (dose: 12.5 mg/kg/injection, schedule: Q07DX002 (ip), vehicle: water) was 121 % of control and 100 % of control, the T/C (dose: 100.0 mg/kg/injection, schedule: Q07DX002 (ip), vehicle: water) was 99 % of control and the T/C (dose: 200.0 mg/kg/injection, schedule: Q07DX002 (ip), vehicle: water) was 62 % of control.
In the case of `N#CN=[N+]([O-])c1ccc(C(=O)O)cc1`, the T/C (dose: 3.75 mg/kg/injection, schedule: Q07DX002 (ip), vehicle: Klucel (hydroxypropylcellulose) (HPC)) is reported as 117 % of control and 123 % of control, the T/C (dose: 7.5 mg/kg/injection, schedule: Q07DX002 (ip), vehicle: Klucel (hydroxypropylcellulose) (HPC)) is reported as 124 % of control and the T/C (dose: 15.0 mg/kg/injection, schedule: Q07DX002 (ip), vehicle: Klucel (hydroxypropylcellulose) (HPC)) is reported as 87 % of control. The T/C (dose: 60.0 mg/kg/injection, schedule: Q07DX002 (ip), vehicle: Klucel (hydroxypropylcellulose) (HPC)) was 159 % of control.
With `CC1=CC2OC3C(OC(=O)c4ccccc4)C(OC(=O)c4ccccc4)C(C)(C2(COC(=O)c2ccccc2)CC1)C31CO1` (configuration not stated) the T/C [16] was 166 % of control, the T/C (dose: 6.0 mg/kg/injection, schedule: Q07DX003 (ip), vehicle: saline with Tween-80) was 152 % of control and the T/C (dose: 12.0 mg/kg/injection, schedule: Q07DX003 (ip), vehicle: saline with Tween-80) was 184 % of control.
In the case of `C=C1C(=O)O[C@H]2/C=C(/C)C3=CC(=O)[C@@](C)(C[C@@H](OC(=O)/C(C)=C\C)C12)O3` (some centres not stated), the T/C (dose: 3.12 mg/kg/injection, schedule: Q07DX002 (ip), vehicle: Klucel (hydroxypropylcellulose) (HPC)) is reported as 63 % of control, the T/C (dose: 6.25 mg/kg/injection, schedule: Q07DX002 (ip), vehicle: Klucel (hydroxypropylcellulose) (HPC)) is reported as 95 % of control and the T/C [13] is reported as 58 % of control. The T/C (dose: 25.0 mg/kg/injection, schedule: Q07DX002 (ip), vehicle: Klucel (hydroxypropylcellulose) (HPC)) was 79 % of control.
For `CCOC(=O)c1ccc(NC(=O)Nc2nncs2)cc1`, the T/C (dose: 12.5 mg/kg/injection, schedule: Q07DX002 (ip), vehicle: distilled water + Tween-80) was 194 % of control, the T/C (dose: 25.0 mg/kg/injection, schedule: Q07DX002 (ip), vehicle: distilled water + Tween-80) was 90 % of control and the T/C (dose: 50.0 mg/kg/injection, schedule: Q07DX002 (ip), vehicle: distilled water + Tween-80) was 94 % of control.
`O=NN(CCCl)C(=O)NC1CCC(=O)NC1=O` (configuration not stated) was tested, and the T/C (dose: 2.0 mg/kg/injection, schedule: Q07DX003 (ip), vehicle: saline with Tween-80) was 82 % of control, the T/C (dose: 4.0 mg/kg/injection, schedule: Q07DX003 (ip), vehicle: saline with Tween-80) was 93 % of control and the T/C (dose: 8.0 mg/kg/injection, schedule: Q07DX003 (ip), vehicle: saline with Tween-80) was 76 % of control. For the same compound, the T/C (dose: 13.0 mg/kg/injection, schedule: Q07DX003 (ip), vehicle: saline with Tween-80) was 57 % of control and the T/C (dose: 20.0 mg/kg/injection, schedule: Q07DX003 (ip), vehicle: saline with Tween-80) was 12 % of control.
For `Brc1c(NC2=NCCN2)ccc2nccnc12`, the T/C (dose: 3.12 mg/kg/injection, schedule: Q07DX002 (ip), vehicle: saline) was 87 % of control, the T/C (dose: 6.25 mg/kg/injection, schedule: Q07DX002 (ip), vehicle: saline) was 98 % of control and the T/C [4] was 92 % of control. For the same compound, the T/C [5] was 82 % of control, the T/C [7] was 72 % of control and the T/C [9] was 75 % of control.
For `CC(=O)OC1COC(NC(=O)N(CCCl)N=O)C(OC(C)=O)C1OC(C)=O` (configuration not stated), the T/C (dose: 0.75 mg/kg/injection, schedule: Q07DX002 (ip), vehicle: saline with Tween-80) was 92 % of control, the T/C (dose: 1.5 mg/kg/injection, schedule: Q07DX002 (ip), vehicle: saline with Tween-80) was 84 % of control and the T/C [16] was 66 % of control. For the same compound, the T/C (dose: 6.0 mg/kg/injection, schedule: Q07DX002 (ip), vehicle: saline with Tween-80) was 92 % of control and the T/C (dose: 12.0 mg/kg/injection, schedule: Q07DX002 (ip), vehicle: saline with Tween-80) was 44 % of control.
